pIC50: −log10 of the molar value. Where “and” joins values, the source holds several entries; their conditions need not be identical. Equal entries are not always repeated. Structures can show the parent of a compound that is named as a salt. Where two headings read alike, the source gives them in different places.
Key:
Vasopressin V1 Receptor = Vasopressin V1 Receptor (Rattus norvegicus, UniProt P30560); assay: biochemical; type: binding, rat (Sprague-Dawley, female; liver crude membrane); conditions: for inhibition at 0.1 µM: 1 h, read-out: Binding Rate of Vasopressin V1 Receptor
Vasopressin V1 Receptor, sequence (P30560 whole entry): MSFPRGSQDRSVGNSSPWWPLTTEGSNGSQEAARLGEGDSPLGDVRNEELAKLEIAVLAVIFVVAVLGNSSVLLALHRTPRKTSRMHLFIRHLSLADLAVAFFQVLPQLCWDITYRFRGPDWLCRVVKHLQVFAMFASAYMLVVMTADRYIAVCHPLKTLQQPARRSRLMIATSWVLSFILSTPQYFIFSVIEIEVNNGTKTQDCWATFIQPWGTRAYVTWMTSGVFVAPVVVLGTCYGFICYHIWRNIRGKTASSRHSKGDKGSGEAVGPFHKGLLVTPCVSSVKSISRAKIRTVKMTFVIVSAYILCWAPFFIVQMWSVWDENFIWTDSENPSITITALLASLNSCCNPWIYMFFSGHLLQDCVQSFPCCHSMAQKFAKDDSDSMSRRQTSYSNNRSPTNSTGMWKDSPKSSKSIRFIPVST
Description: The livers excised from Sprague-Dawley female rats were cut into small pieces, and were homogenized in 50 mM Tris-HCl, pH 7.4 hereunder referred to as "buffer"). The homogenate was centrifuged at 50000×g, at 4° C. for 20 minutes. The pellet was added the buffer in an amount of 10 times the volume of the pellet, the mixture was recentrifuged by the same method as described above to wash the residue. The buffer was further added to the resulting pellet so that the protein content thereof was adjusted to 10 mg/ml to thus give a crude membrane fraction of rat liver. The crude membrane fraction of rat liver was used in the following test. More specifically, 5000 μg of the crude liver membrane was incubated with [^3 H]-Arg-vasopressin V-1 antagonist ([^3 H) vasopressin V1 antagonist: 2 nM) and various concentration (3×10^-12 to 10^-6) of the test compounds in a 1000 μL of buffer containing 10 mM magnesium chloride, 10 mM potassium chloride and 0.1% bovine serum albumin at 25° C. for 60 minutes. Thereafter the incubation mixture was rapidly filtered by vacuum using a cell harvester. The filters were washed with buffer to remove free ligands and excess buffer, and to thus trap labeled ligand linked with the receptor on the filter paper. The filter paper was sufficiently dried and mixed with a liquid scintillator, and the amount of the [^3 H] vasopressin V1 antagonist bonded to the membrane was determined using a liquid scintillation counter. The inhibition rate at each concentration was calculated according to the following equation:
Inhibition Rate (%)=100-[(B-N)/(B0 -N)]×100
Wherein B represents the amount of the [^3 H] vasopressin V1 antagonist bonded to the membrane in the presence of known amounts of the compound to be tested and the [^3 CH] vasopressin V1 antagonist;
B0 represents the amount of the [^3 H] vasopressin V1 antagonist bonded to the membrane in the absence of the compound to be tested;
N represents the amount of the [^3 H] vasopressin V1 antagonist bonded to the membrane in the presence of an excess of vasopressin (10^-6 M).
The IC50 value (the concentration required to cause 50% inhibition of the specific binding of [^3 H]-V1 antagonist) was determined. […] On the other hand, for the compounds which were investigated only one concentration (10^-7 M), the inhibition rate at that concentration was defined to be the binding rate.

Vasopressin V2 Receptor = Vasopressin V2 Receptor (Rattus norvegicus, UniProt Q00788); assay: biochemical; type: binding, rat (Sprague-Dawley, female; kidney crude membrane); conditions: for inhibition at 0.1 µM: 1 h, read-out: Binding Rate of Vasopressin V2 Receptor; for pIC50: [3H] vasopressin V2 antagonist 2 nM, 25° C., 60 minutes, read-out: Affinity for Vasopressin V2 Receptor, IC50
Vasopressin V2 Receptor, sequence (Q00788 whole entry): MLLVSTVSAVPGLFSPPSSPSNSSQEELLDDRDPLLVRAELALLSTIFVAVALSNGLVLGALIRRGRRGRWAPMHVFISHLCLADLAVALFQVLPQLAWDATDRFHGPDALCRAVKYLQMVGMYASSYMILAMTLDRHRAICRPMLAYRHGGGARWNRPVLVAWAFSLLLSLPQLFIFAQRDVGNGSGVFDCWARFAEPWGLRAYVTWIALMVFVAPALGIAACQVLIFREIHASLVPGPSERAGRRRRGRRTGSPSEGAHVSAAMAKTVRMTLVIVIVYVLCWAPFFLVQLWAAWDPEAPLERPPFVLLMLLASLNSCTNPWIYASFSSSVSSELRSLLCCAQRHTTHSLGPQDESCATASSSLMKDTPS

Normal Conscious Rat = assay: Aquaretic Effects in Normal Conscious Rat (urine volume); type: in vivo, rat (Sprague-Dawley, male)
Description: Aquaretic Effects in Normal Conscious Rat
Studies were performed with Sprague-Dawley male SPF rats (body weight: 240 to 320 g; 8-week-old). In this experiment, each group consisted of not less than 4 animals and rats were fasted over 16 to 20 hours. The animals were acclimatized in metabolic cages for one hour, then each compound to be tested was dissolved in 100% N,N-dimethylformamide or suspended in 5% gum arabic solution and administered to these animals intravenously (iv.) in a dose of 3 mg/kg or orally (p.o.) in a dose of 30 mg/kg. Immediately after the test compound or vehicle were orally administered, saline (25 ml/kg) was given orally. Spontaneous voided urines were collected for 4 hours after the administration of the compound and the amount of the urine were determined. In this case, the control group consisted of animals to which only 5% gum arabic was orally administered.
In addition, known compounds of Comparative Examples 2 and Comparative Examples 3 and 4 represented by the following formulas were used as control compounds.

male ICR mice = assay: Acute Toxicity Test; type: in vivo
Description: To groups of male ICR mice (6-week-old) each consisting of 5 animals, there were orally administered the compounds of Examples 13, 18, 25 and 30 and Comparative Examples 2 and 5 suspended in 5% gum arabic solution at doses of 150, 500 and 1500 mg/kg, followed by observation of the general symptoms of these animals during 7 days after the administration to thus evaluate the number of death. In this respect, mice were given feed and water ad libitum throughout this test except for the term extending from 16 to 20 hours before the administration and 4 hours after the administration.

[1] = 150 mg/kg, oral, 7 days observation
[2] = 500 mg/kg, oral, 7 days observation
[3] = 1500 mg/kg, oral, 7 days observation
[4] = 10^-7 M, inhibition rate at this concentration
[5] = [3H] vasopressin V1 antagonist 2 nM, 25° C., 60 minutes, read-out: Affinity for Vasopressin V1 Receptor, IC50

inhibition at 0.1 µM (Vasopressin V1 Receptor; [4]) [%]	inhibition at 0.1 µM (Vasopressin V2 Receptor; [4]) [%]	SMILES	pIC50 (Vasopressin V1 Receptor)	inhibition at 0.1 µM (Vasopressin V1 Receptor) [%]	inhibition at 0.1 µM (Vasopressin V2 Receptor) [%]	Amount of Urine Volume (Normal Conscious Rat; 3 mg/kg, i.v.) [ml/kg/0-4 hr.]	Amount of Urine Volume (Normal Conscious Rat; 30 mg/kg, p.o.) [ml/kg/0-4 hr.]	number of death out of 5 or 6 animals (male ICR mice; mouse, in vivo)	number of death out of 5 or 6 animals (male ICR mice; [1])	number of death out of 5 or 6 animals (male ICR mice; [2])	number of death out of 5 or 6 animals (male ICR mice; [3])	pIC50 (Vasopressin V1 Receptor; [5])	pIC50 (Vasopressin V2 Receptor)
		Cc1ccccc1C(=O)Nc1ccc(C(=O)N2CCCC(N(C)C)c3ccccc32)cc1 (stereo not drawn) [Comp. Ex. 2, reference compound]	< 6.00	3.4	91.2	22.9	79.1	4 out of 5 and 0/5 and 4/5					
		Cc1nc2c([nH]1)-c1ccccc1N(C(=O)c1ccc(NC(=O)c3ccccc3-c3ccccc3)cc1)CC2 [Comparative Example 5, reference compound]							0/5	2 out of 5 and 2/5	2 out of 5 and 2/5		
		O=C(Nc1ccc(C(=O)N2C[C@H]3C[C@@H](O)CN3c3ccccc32)cc1)c1ccccc1-c1ccccc1 [Example 13, (2R,3aR)-2-Hydroxy-5-[4-[(2-Phenylbenzoyl) Amino]Benzoyl]-1,2,3,3a,4,5-Hexahydro-Pyrrolo[1,2-a]Quinoxaline]				55.6	82.0			0/5	0/5		
		O=C1C[C@H]2CN(C(=O)c3ccc(NC(=O)c4ccccc4-c4ccccc4)cc3)c3ccccc3C(=O)N2C1 [Example 30, (11aS)-10-[4-[(2-Phenylbenzoyl) Amino]Benzoyl]-1,2,3,10,11, 11a-Hexahydro-5H-Pyrrolo [2,1-c][1,4]Benzodiazepin-2,5-Dione]				57.1	103.0		0/6	0/6	0/6		
4.7	100	Cc1ccc(-c2ccccc2C(=O)Nc2ccc(C(=O)N3C[C@@H]4CCCN4C(=S)c4ccccc43)cc2)cc1 [Example 38, (11aS)-10-[4-[[2-(4-Tolyl) Benzoyl]Amino]Benzoyl]-1,2,3,10,11, 11a-Hexahydro-5H-Pyrrolo[2,1-c][1,4]Benzodiazepin-5-Thione]				60.0	66.6						
6.6	92	O=C(Nc1ccc(C(=O)N2C[C@@H]3CCCN3Cc3ccccc32)cc1)c1ccccc1-c1ccccc1 [Example 41, (11aS)-10-[4-[(2-Phenylbenzoyl) Amino]Benzoyl]-1,2,3,10,11, 11a-Hexahydro-5H-Pyrrolo[12,1-c][1,4]Benzodiazepine Hydrochloride]				29.6	73.8						
		Cl.O=C(Nc1ccc(C(=O)N2C[C@H]3CCCN3Cc3ccccc32)cc1)c1ccccc1-c1ccccc1 [Example 43, (11aR)-10-[4-[(2-Phenylbenzoyl) Amino]Benzoyl]-1,2,3,10,11, 11a-Hexahydro-5H-Pyrrolo[2,1-c][1,4]Benzodiazepine Hydrochloride]		61.6	100	77.5	121.6						
48.2	96.7	Cc1ccc(-c2ccccc2C(=O)Nc2ccc(C(=O)N3C[C@H]4CCCN4Cc4ccccc43)cc2)cc1 [Example 44, (11aR)-10-[4-[[2-(4-Tolyl) Benzoyl]Amino]Benzoyl]-1,2,3,10,11, 11-Hexahydro-5H-Pyrrolo[2,1-c][1,4]Benzodiazepine Hydrochloride]				73.0	92.8						
		Cl.O=C(Nc1ccc(C(=O)N2C[C@H]3C[C@H](O)CN3Cc3ccccc32)cc1)c1ccccc1-c1ccccc1 [Example 47, (2S, 11aR)-2-Hydroxy-10-[4-[(2-Phenylbenzoyl) Amino]Benzoyl]-1,2,3,10,11,11a-Hexahydro-5H-Pyrrolo[2,1-c][1,4]Benzodiazepine Hydrochloride]		59.8	91.9	79.5	109.6					7.21	9.11
		Cl.O=C1C[C@@H]2CN(C(=O)c3ccc(NC(=O)c4ccccc4-c4ccccc4)cc3)c3ccccc3CN2C1 [Example 48, (11aR)-10-[4-[(2-Phenylbenzoyl) Amino]Benzoyl]-1,2,3,10,11, 11a-Hexahydro-5H-Pyrrolo[2,1-c][1,4]Benzodiazepin-2-One Hydrochloride]		42.3	96.8	78.9	14.8						
88.3	92.8	O=C(Nc1ccc(C(=O)N2CC[C@@H]3CCCN3c3ccccc32)cc1)c1ccccc1-c1ccccc1 [Example 49, (3aS)-6-[4-[(2-Phenylbenzoyl) Amino]Benzoyl]-2,3,3a,4,5,6-Hexahydro-1H-Pyrrolo[1,2-a][1,5]Benzodiazepine]				76.5	43.8						
92.4	97.8	O=C(Nc1ccc(C(=O)N2CC[C@@H]3C[C@@H](O)CN3c3ccccc32)cc1)c1ccccc1-c1ccccc1 [Example 50]				60.0	36.0						
95.7	100	O=C(Nc1ccc(C(=O)N2CC[C@H]3C[C@@H](O)CN3c3ccccc32)cc1)c1ccccc1-c1ccccc1 [Example 52, (2R,3aS)-2-Hydroxy-6-[4-[(2-Phenylbenzoyl) Amino]Benzoyl]-2,3,3a,4,5,6-Hexahydro-1H-Pyrrolo[1,2-a][1,5]Benzodiazepine]				60.6	36.6						
98.6	95.1	O=C(Nc1ccc(C(=O)N2CC[C@H]3C[C@H](O)CN3c3ccccc32)cc1)c1ccccc1-c1ccccc1 [Example 54, (2S, 3aS)-2-Hydroxy-6-[4-[(2-Phenylbenzoyl) Amino]Benzoyl]-2,3,3a,4,5,6-Hexahydro-1H-Pyrrolo[1,2-a][1,5]Benzodiazepine]				78.3	68.0						

SMILES	inhibition at 0.1 µM (Vasopressin V1 Receptor; [4]) [%]	inhibition at 0.1 µM (Vasopressin V2 Receptor; [4]) [%]	pIC50 (Vasopressin V1 Receptor)	inhibition at 0.1 µM (Vasopressin V1 Receptor) [%]	inhibition at 0.1 µM (Vasopressin V2 Receptor) [%]	Amount of Urine Volume (Normal Conscious Rat; 3 mg/kg, i.v.) [ml/kg/0-4 hr.]	Amount of Urine Volume (Normal Conscious Rat; 30 mg/kg, p.o.) [ml/kg/0-4 hr.]	number of death out of 5 or 6 animals (male ICR mice; mouse, in vivo)	number of death out of 5 or 6 animals (male ICR mice; [1])	number of death out of 5 or 6 animals (male ICR mice; [2])	number of death out of 5 or 6 animals (male ICR mice; [3])	pIC50 (Vasopressin V1 Receptor; [5])	pIC50 (Vasopressin V2 Receptor)
Cc1ccc(-c2ccccc2C(=O)Nc2ccc(C(=O)N3C[C@H]4C[C@H](O)CN4c4ccccc43)cc2)cc1 [Example 18, (2S, 3aR)-2-Hydroxy-5-[4-[[2-(4-Tolyl) Benzoyl]Amino]Benzoyl]-1,2,3,3a,4,5-Hexahydro-Pyrrolo[1,2-a]Quinoxaline]	58.3	100				79.2	96.3		0/6	0/6	0/6	7.18	9.74
O=C(Nc1ccc(C(=O)N2C[C@@H]3CCCN3C(=O)c3ccccc32)cc1)c1ccccc1-c1ccccc1 [Example 25, (11aS)-10-[4-[(2-Phenylbenzoyl) Amino]Benzoyl]-1,2,3,10,11, 11a-Hexahydro-5H-Pyrrolo[2,1-c][1,4]Benzodiazepin-5-One]	4.1	100				58.5	102.7		0/6	0/6	0/6	< 6.00	8.80
